# In PMC5125025 (Science (New York, N.Y.), 2015):
# Key:
# [1] = system: RsTSPO WT; details: cited from earlier work
# [2] = molecular target: RsTSPO A139T mutant (Cereibacter sphaeroides, UniProt Q9RFC8, A139T); experiment: Ligand binding affinity of purified RsTSPO A139T mutant; parameters: species or system Rhodobacter sphaeroides
# RsTSPO A139T mutant, sequence (Q9RFC8 whole entry A139T): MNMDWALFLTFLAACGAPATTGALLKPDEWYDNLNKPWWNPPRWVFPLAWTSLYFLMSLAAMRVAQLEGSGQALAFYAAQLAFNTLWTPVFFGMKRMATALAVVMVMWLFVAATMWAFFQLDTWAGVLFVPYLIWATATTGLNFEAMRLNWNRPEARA
Compound,affinities of RsTSPO for ligands (range in words) [1],Kd [2] [µM]
"C=CC1=C(C)c2cc3[nH]c(cc4nc(cc5[nH]c(cc1n2)c(C)c5CCC(=O)O)C(CCC(=O)O)=C4C)c(C)c3C=C [PpIX, protoporphyrin IX]",high nanomolar to micromolar range,1.9 ± 0.3
CCC(C)N(C)C(=O)c1cc2ccccc2c(-c2ccccc2Cl)n1 (stereo not drawn) [PK11195],high nanomolar to micromolar range,42 ± 4
CC(C)CCC[C@@H](C)[C@H]1CC[C@H]2[C@@H]3CC=C4C[C@@H](O)CC[C@]4(C)[C@H]3CC[C@]12C [cholesterol],high nanomolar to micromolar range,> 300
